Laboratory results as given in patent US12364670B2, “Cannabidiol-type cannabinoid compound” (JAZZ PHARMACEUTICALS RESEARCH UK LIMITED, priority 2019, dated 2025).

Tests used:
[1] = system: electroshock-induced tonic hind limb extensor seizure (MEST) in the mouse; test: Maximal electroshock seizure threshold (MEST) test in the mouse, Example 2; conditions: for CC50 +/- SEM: vehicle CC50 21.0
Procedure: The efficacy of CBD-C6 was tested in a mouse model of seizure, the maximal electroshock seizure threshold (MEST) test.
The maximal electroshock seizure threshold (MEST) test is widely utilized preclinically to evaluate pro- and anti-convulsant properties of molecules (Loscher et al., 1991).
In the MEST test the ability of a drug to alter the seizure threshold current required to induce hind limb tonic extensor convulsions is measured according to an “up and down” method of shock titration (Kimball et al., 1957). An increase in seizure threshold is indicative of anti-convulsant effect.
Naïve mice were acclimatised to the procedure room in their home cages, with food and water available ad libitum.
Animals were dosed i.p. according to dose group.
The vehicle (10 ml/kg i.p. 60 min pre-treatment time) was 1:1:18 vehicle 5% ethanol, 5% kolliphor EL, 90% saline.
The test compound, CBD-C6 was administered at doses of 10, 30 and 100 mg/kg given at 10 ml/kg i.p. 180 min pre-treatment time.
Mice were individually assessed for the production of a tonic hind limb extensor seizure using a Hugo Sachs Electronik stimulator, which delivered an adjustable constant current (1-300 mA) of 0.1 s duration via corneal electrodes.
The stimulus intensity was varied by an ‘up and down’ method of shock titration.
This procedure continued for all mice within the treatment group. Data generated from treatment group of n=12 was used to calculate the CC50±s.e.m. values according to the method of Kimball et al. (1957).
Induction of seizure is measured as an all-or-nothing effect scored as either present (+) or absent (0) for each animal.
Data was analysed by comparing treated groups with the appropriate vehicle control using Fisher's Exact Probability tests.

[2] = system: electroshock-induced generalised seizure threshold (MEST) in the mouse; test: Maximal electroshock seizure threshold (MEST) test in the mouse, Example 3; conditions: for CC50 ± SEM: vehicle CC50 24.3
Procedure: The efficacy of CBD-C6 was tested in a mouse model of generalised seizure, the maximal electroshock seizure threshold (MEST) test as described in Example 2.
Naïve mice were acclimatised to the procedure room in their home cages for up to 7 days, with food and water available ad libitum.
All animals were weighed at the beginning of the study and randomly assigned to treatment groups based on a mean distribution of body weight across groups.
The first animal within a treatment group was given a shock at the expected or estimated CC50 current. For subsequent animals, the current was lowered or raised depending on the convulsions outcome from the preceding animal.
Data generated from each treatment group were used to calculate the CC50±SEM values for the treatment group.
Vehicle: (5% ethanol, 5% solutol, 90% Saline) was prepared as follows: 1 mL of ethanol, 1 mL of solutol were warmed to 60° C., in 18 mL of saline (1:1:18).
The test compound, CBD-C6 was prepared according to the method described in Example 1. CBD-C6 was administered at 10, 30 and 100 mg/kg (i.p.) in a 1:1:18 ethanol:solutol:0.9% saline formulation.
CBD-C6 effects were also calculated as percentage change in CC50 from the vehicle control group. Significant difference between drug-treated animals and controls were assessed according to Litchfield and Wilcoxon (1949).

[3] = 10 mg/kg i.p., 180 min pre-treatment
[4] = 30 mg/kg i.p., 180 min pre-treatment
[5] = 100 mg/kg i.p., 180 min pre-treatment
[6] = 10 mg/kg i.p., 60 min pre-treatment
[7] = 30 mg/kg i.p., 60 min pre-treatment
[8] = 100 mg/kg i.p., 120 min pre-treatment
[9] = 2.5 mg/kg i.p., 30 min pre-treatment

**Q.** With `C=C(C)[C@@H]1CCC(C)=C[C@H]1c1c(O)cc(CCCCCC)cc1O` [CBD-C6, Cannabidiol-C6] as the compound, how does the “% change from vehicle (CC50)” value [1, 3] read?
**A.** 11%

**Q.** What about the “CC50 +/- SEM” value [1, 3] of the same compound?
**A.** 23.4 mA

**Q.** And the “% change from vehicle (CC50)” value [1, 4]?
**A.** 63%

**Q.** What about the “CC50 +/- SEM” value [1, 4] of the same compound?
**A.** 34.3 mA

**Q.** What about the “% change from vehicle (CC50)” value [1, 5] of the same compound?
**A.** 376%

**Q.** And the “CC50 +/- SEM” value [1, 5]?
**A.** >100 mA

**Q.** And the “% change from vehicle (CC50)” value [2, 6]?
**A.** 27%

**Q.** What about the “CC50 ± SEM” value [2, 6] of the same compound?
**A.** 30.8 ± 1.9 mA

**Q.** What about the “% change from vehicle (CC50)” value [2, 7] of the same compound?
**A.** 29%

**Q.** And the “CC50 ± SEM” value [2, 7]?
**A.** 31.5 ± 1.0 mA

**Q.** And the “% change from vehicle (CC50)” value [2, 8]?
**A.** 239%

**Q.** And the “CC50 ± SEM” value [2, 8]?
**A.** 82.5 ± 0.7 mA

**Q.** And the “effect on MEST (in words)” value ([2]; 10, 30 and 100 mg/kg i.p., compared to vehicle)?
**A.** dose-related increase in MEST

**Q.** Which results are given for `CN1C(=O)CN=C(c2ccccc2)c2cc(Cl)ccc21` [Diazepam, diazepam, reference compound]?
**A.** % change from vehicle (CC50) [1, 9]: 40%; % change from vehicle (CC50) [2, 9]: 255%

**Q.** For `CCCC(CCC)C(=O)[O-].[Na+]` [Sodium Valproate, sodium valproate, reference compound], which “% change from vehicle (CC50)” value ([2]; 250 mg/kg i.p., 30 min pre-treatment) is on record?
**A.** 1057%
